Test results: US20090048210A1, “AGENT FOR THERAPY OR TREATMENT OF WOUND” (priority 2004, published 2009)

How the values were obtained:
[1] = tested on: normal human neonatal prepuce epidermis keratinized cells (NHEK(F)); test: Human epidermis keratinized cell proliferation assay (WST-8 cell counting); type: cell-based; details: for overall effect on cell proliferation ability as compared with the control: summary of the 24 and 48 hour experiments
Protocol: Human epidermis keratinized cells were cultured in the presence of chitin and chitosan as well as their derivatives, and change in proliferation ability of the cell was measured.
As the human epidermis cell, normal human neonatal prepuce epidermis keratinized cells (NHEK(F)) (Kurabo Biomedical, Osaka) were used.
A medium used for measuring NHEK(F) proliferation effect was obtained by adding 1 ml of a PSA solution (Kurabo Biomedical, Osaka) containing penicillin, streptomycin and amphoterin B, and 10% bovine fetus serum (Gibco, USA) to 500 ml of a basic medium for human epidermis keratinized cell HuMedia-KB2 (Kurabo Biomedical, Osaka).
Cells were cultured under 37° C., 5% CO2 and wet environments using a medium for proliferation and a flask for culturing (Lot No. 055522) (Nalge Nunc International, Denmark), and passed to quaternary culture and used in an experiment.
The medium was aspirated when proliferation of cells reach sub-confluent (60 to 80% of the flask bottom area), then, inside of the vessel was washed with HEPES, and 2 ml of trypsin was added to cause release of cells from the vessel bottom. The released cells were recovered by HEPES and added into the neutralization solution to terminate the reaction of trypsin, and then, precipitated by centrifugal separation (1100 rpm, 5 minutes), and the supernatant was discarded. The recovered cells were re-floated on a medium for proliferation, the live cell number was counted by a trypan blue discharge test, and then, transplanted into another flask for culturing so that the live cell concentration to the flask bottom area was […].
For measurement, cells were centrifugally separated, then, re-floated on a medium for measurement and adjusted at 30000 cells/ml to give a cell suspension which was then used.
Into each well of a 96-well multi-plate (Sumitomo Bakelite Co. Ltd., Tokyo), the cell suspension prepared in (1) was disseminated each in an amount of 100 μl at a concentration of 3000 cells/well. For stabilizing disseminated cells, previous culturing was carried out for 12 hours under 37° C., 5% CO2 and wet environments.
Next, into each well of the multi-plate, the chitin-based samples or chitosan-based samples controlled at respective concentrations were added each in an amount of 10 μl. The final concentrations of respective samples in this operation were 100, 10, 1 and 0.1 μg/ml, respectively. True culturing was carried out for 24 hours or 48 hours under 37° C., 5% CO2 and wet environments.
For counting the number of cells proliferated in the culturing, a reagent for measuring cell number (cell counting kit) WST-8 was added in an amount of 10 μl to each well of the multi-plate, and allowed to stand still under 37° C., 5% CO2 and wet environments for 1 to 4 hours to cause coloration. After coloration, the absorbance was measured using EASY READER EAR340AT (Medi-Con Corporation, Osaka). Numerical treatment and statistics of the measured data were carried out using a table calculation software (Microsoft Excel xp (R)).
The cell number and absorbance show a proportional correlation (FIG. 2, Table 2), and this graph gave a calibration curve:
A cell number in dissemination of 3000 was subtracted from the cell number obtained from this calibration curve to give a proliferated cell number (cells/well).

[2] = tested on: skin deficient wound; test: Skin deficient wound mouse model, skin regeneration; type: in vivo
Protocol: Fresh skin deficient wound was made using mice and a skin regeneration promoting effect of GlcNAc was studied. As a control, chitin in the form of gel (Chitosan Kowa K.K.) and physiological saline were used. (i) Eight 8-weeks female mice: BALB/c having a body weight of 20 to 25 g were used. In the experiment, one week-conditioning period was set. (ii) An N-acetyl-D-glucosamine (GlcNAc) powder (Seikagaku Kogyo K.K., Tokyo) was diluted in physiological saline so that its concentration was 10 mg/ml, and then, sterilized by filtration through a 0.22 μm millipore filter to give stock solution the stock solution was then diluted with sterile physiological saline to 10 μg/ml and used. (iii) chitin in the form of gel (Chitosan Kowa, Tokyo). Hereinafter, referred to as “chitin gel”. (iv) GlcNAc was blended in chitin gel so that its concentration was 10 μg/g and the blend was used. Hereinafter, the blend is referred to as “chitin gel+GlcNAc”. (i) Production of skin deficient model: Pentobarbital (trade name: Nembutal injection) was diluted 10-fold with physiological saline, and then, administered intraperitoneally to a mouse at 0.005 ml/g. After a sufficient anesthetic effect was confirmed, hair at the back of the mouse was shaved by a hair clipper, and the skin was disinfected with alcohol, and then, a round skin deficient region having a diameter of 5 mm was made using a 5 mm derma punch (FIG. 9). These eight mice were classified into “chitin gel group”, “chitin gel+GlcNAc group”, “GlcNAc group” and “physiological saline group” each containing two mice, and each group was applied once a day. (ii) “chitin gel group” and “chitin gel+GlcNAc group” were directly applied to the skin deficient region for 7 days each at 0.1 g/head, and “GlcNAc group” and “physiological saline group” were each at 1 ml/head. (iii) On 8th and later days, the crust formed was removed directly before application of each group, and application was carried out for further 8 days in the same manner as described above. The size of the skin damage repair region was measured on 8th and 16th days using calipers. Staining method: The skin deficiency repair region was collected, and fixed with a 10% neutral buffer formalin aqueous solution (formaldehyde solution). The repair region was excised to give a longitudinal section, and then, embedded in paraffin according to an ordinary method and sliced into 5 μm by a microtome. It was stained by hematoxylin-eosin staining.

[3] = 24 hours after addition, 0.1 μg/ml
[4] = 24 hours after addition, 1 μg/ml
[5] = 24 hours after addition, 10 μg/ml
[6] = 24 hours after addition, 100 μg/ml
[7] = 48 hours after addition, 0.1 μg/ml
[8] = 48 hours after addition, 1 μg/ml
[9] = 48 hours after addition, 10 μg/ml
[10] = 48 hours after addition, 100 μg/ml
[11] = 5 mm skin deficient region, applied once a day for 16 days
[12] = hematoxylin-eosin staining of the repair region

Structure (SMILES)	average cell proliferation number [1, 3] [cell/well]	average cell proliferation number [1, 4] [cell/well]	average cell proliferation number [1, 5] [cell/well]	average cell proliferation number [1, 6] [cell/well]	proliferation effect as compared with the control (p<0.05) ([1]; 24 hours, 1 μg/ml)	proliferation effect as compared with the control (p<0.05) ([1]; 24 hours, 10 μg/ml)	proliferation effect as compared with the control (p<0.05) ([1]; 24 hours, 100 μg/ml)	average cell proliferation number [1, 7] [cell/well]	average cell proliferation number [1, 8] [cell/well]	average cell proliferation number [1, 9] [cell/well]	average cell proliferation number [1, 10] [cell/well]	proliferation effect as compared with the control (p<0.05) ([1]; 48 hours, 1 μg/ml)	proliferation effect as compared with the control (p<0.05) ([1]; 48 hours, 10 μg/ml)	proliferation effect as compared with the control (p<0.05) ([1]; 48 hours, 100 μg/ml)	overall effect on cell proliferation ability as compared with the control [1]	visual observation: epidermis / skin formation [2, 11]	visual observation: excess granulation [2, 11]	overall skin regenerating effect in a mouse ([2]; compared with physiological saline and chitin gel)	histological observation: hypodermis [2, 12]	histological observation: regeneration of skin / epidermis [2, 12]
CC(=O)N[C@H]1C(O)O[C@H](CO)[C@@H](O)[C@@H]1O (stereo partly drawn) [GlcNAc, N-Acetyl-D-Glucosamine]	601 ± 39	774 ± 158	636 ± 51	628 ± 73	significant proliferation stimulating effects	significant proliferation stimulating effects	significant proliferation stimulating effects	1312 ± 169	2372 ± 415	2155 ± 175	2128 ± 165	significant proliferation stimulating effects	significant proliferation stimulating effects	significant proliferation stimulating effects	significant effect of stimulating cell proliferation ability	complete cutization was recognized	excess granulation did not occur	more excellent than physiological saline and chitin gel	leaves a slight granulation tissue at the center portion	skin regeneration is completed
N[C@H]1C(O)O[C@H](CO)[C@@H](O)[C@@H]1O (stereo partly drawn) [GlcN, D-Glucosamine, reference compound]	587 ± 134	766 ± 114	634 ± 65	689 ± 34	significant proliferation stimulating effects	significant proliferation stimulating effects	significant proliferation stimulating effects	1616 ± 244	2108 ± 344	1839 ± 160	1758 ± 424	significant proliferation stimulating effect			significant effect of stimulating cell proliferation ability					
